According to patent US7795213B2 (POSCO, priority 2002, dated 2010):

Columns and labels:
Aβ1-40 [1] = target: T1, Aβ1-40 (Homo sapiens, UniProt P05067); assay: 125I-VEGF competition binding to immobilized Aβ peptide in microtiter wells; settings: read-out: dissociation constant (KD) of VEGF for Aβ; immobilized Aβ1-40; 50 pM 125I-VEGF with increasing unlabeled VEGF; KD=IC50-[125I-VEGF]
T1 construct: Aβ1-40, Aβ1-42, and Aβ40-1 (BACHEM, Bubendorf, Switzerland) were immobilized on a CM5 sensor chip; purchased BACHEM

Aβ1-40 [2] = target: T1, Aβ1-40; assay: Surface plasmon resonance binding to Aβ peptide on CM5 sensor chip; settings: 100 nM protein; versus alpha2-macroglobulin, alpha1-antichymotrypsin, serum amyloid P component, apolipoprotein E4
Experimental: (§1) Aβ1-40, Aβ1-42, and Aβ40-1 (BACHEM, Bubendorf, Switzerland) were immobilized on a CM5 sensor chip (BIAcore AB, Uppsala, Sweden) with an amine coupling kit. Alpha2-macroglobulin, alpha1-antichymotrypsin, serum amyloid P component, apolipoprotein E4, and VEGF165 (100 nM) were allowed to bind to the immobilized Aβ at a flow rate of 10 μl/min and sensorgrams were recorded in real time.

Aβ1-42 [3] = target: T2, Aβ1-42 (Homo sapiens, UniProt P05067); assay: as above; settings: 100 nM protein; versus alpha2-macroglobulin, alpha1-antichymotrypsin, serum amyloid P component, apolipoprotein E4
T2 construct: Aβ1-40, Aβ1-42, and Aβ40-1 (BACHEM, Bubendorf, Switzerland) were immobilized on a CM5 sensor chip; purchased BACHEM
Experimental: as §1

Aβ40-1 [4] = test system: Aβ40-1
Aβ40-1, sequence (as listed by the source): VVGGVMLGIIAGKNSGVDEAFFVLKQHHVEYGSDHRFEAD
Experimental: as §1

Aβ1-40 [5] = target: T1, Aβ1-40; assay: Co-aggregation assay of 125I-VEGF165 with Aβ, radioactivity in pellet; type: binding; settings: 100 μM Aβ1-40, 1 nM 125I-VEGF165, 37° C., 2 days; approximately 60% of Aβ alone in pellet
Experimental: (§2) The aggregation of Aβ1-40 was determined as described with some modifications (Chang et al., Brain Res Brain Res Protoc 2000;6(1-2):6-12). After a two day incubation of Aβ1-40 (100 μM) with FITC-conjugated Aβ1-40 (1 μM) in 50 mM MES, pH 5.8, at 37° C., the mixture was centrifuged, and fluorescence in the pellet was measured. […] Then the mixtures were centrifuged and radioactivity in pellet was determined in a gamma-counter. […] The radioactivity in the pellet was determined.

Aβ40-1 [6] = settings: 100 μM Aβ40-1, 1 nM 125I-VEGF165, 37° C., 2 days; P=0.0076
Experimental: as §2

Aβ1-40 [7] = target: T1, Aβ1-40; assay: Effect of VEGF on the aggregation rate of Aβ, FITC-Aβ1-40 fluorescence in pellet; type: biochemical; settings: VEGF 1 μM; 50 μM and 100 μM Aβ1-40; 37° C.
pre-aggregated Aβ1-40 = target: T3, pre-aggregated Aβ1-40 (Homo sapiens, UniProt P05067); assay: Binding of 125I-VEGF to pre-aggregated Aβ, immediate centrifugation; settings: 50 μM Aβ preincubated for 2 days, 1 nM 125I-VEGF, immediately centrifuged
T3 construct: Aβ1-40, Aβ1-42, and Aβ40-1 (BACHEM, Bubendorf, Switzerland) were immobilized on a CM5 sensor chip; purchased BACHEM
Experimental: as §2

Aβ/VEGF co-aggregate = target: T4, Aβ/VEGF co-aggregate (Homo sapiens, UniProt P05067); assay: Dissociation assay of VEGF from Aβ/VEGF co-aggregate; type: binding; settings: after 3 days; 50 mM MES, pH 5.8
T4 construct: purchased BACHEM (Aβ peptides); Amersham Pharmacia Biotech (125I-VEGF)
Experimental: The radioactivity in the supernate was determined. […] The mixtures were separated by SDS-PAGE (10%) and autoradiographed.

Aβ1-42 [8] = target: T2, Aβ1-42; assay: Thioflavin T assay of Aβ aggregation; type: biochemical; settings: 50 μM Aβ1-42, 37° C., 24 hours; VEGF or GST-HBD at various concentrations
Experimental: 10 μM of thioflavin T was added to the mixture and sufficiently mixed. Then, the fluorescence of the mixture was measured at Ex=444 nm and Em=485 nm, and then, compared with that of control of Aβ incubated alone, to determine the affection on aggregation of Aβ.
50 μM Aβ was incubated at 37° C. for 24 hours together with triamterene of 0 μM, 4 μM, 20 μM or 100 μM, respectively, to generate aggregation of Aβ. Then, the degree of aggregation was determined by the thioflavin T assay as illustrated in Example 11.

PC12 cells = assay: DCF fluorescence, generation of reactive oxygen species by Aβ; type: cell-based; settings: PC12 cells 3 hours
Experimental: 5 μM VEGF165 or 5 μM GST-HBD and 5 μM Aβ1-42 were mixed and incubated at 37° C. for 24 hours. The mixture was added to PC12 cells (6×10^4, cells/well, kindly provided by Dr. Pann-Ghill Suh), and then left for reaction at 37° C. for 3 hours. Then, 100 μM of DCF solution was added to the resulted mixture, reacted for 30 minutes, and then washed with PBS (phosphate-buffered saline). The obtained cells were observed through a fluorescent microscope, and DCF fluorescence was measured, to calculate the level of generation of the reactive oxygen species.

immobilized Aβ aggregate = target: T5, immobilized Aβ aggregate (Homo sapiens, UniProt P05067); assay: In vitro VEGF trapping on immobilized Aβ aggregate; type: binding; settings: 50 μM Aβ aggregated 24 hours and dried on well; radiolabeled VEGF; no inhibitor
T5 construct: Aβ (Aβ) is the major component of senile plaques and is derived from the amyloid precursor protein by proteolytic cleavage
Experimental: The system is simulating VEGF trapping on Aβ plaques under in vitro condition. In the in vitro assay system, 50 μM of Aβ was aggregated at 37° C. for 24 hours and immobilized on the bottom of a well by drying under air for overnight, and then, VEGF labeled with a radioisotope was added to the well, to form VEGF-Aβ binding. After removing unbound VEGF, bound VEGF was determined by measuring radioactivity. […] If certain chemical has inhibitory activity against VEGF-Aβ binding, then the chemical will decrease the amount of VEGF trapped on immobilized Aβ aggregate.

Aβ = target: T6, Aβ (Homo sapiens, UniProt P05067); assay: Binding of growth factors to Aβ; settings: among NGF, bFGF, PDGF, VEGF and midkine
T6 construct: Aβ (Aβ) is the major component of senile plaques and is derived from the amyloid precursor protein by proteolytic cleavage

[9] = Keyt et al., J. Biol. Chem. 1996; cited from earlier work

Substance: VEGF
- Kd (Aβ1-40 [1]): ~0.05 nM
- binding to immobilized Aβ1-40 (surface plasmon resonance) (Aβ1-40 [2]): much more strongly than other molecules that are known to bind to Aβs
- binding to immobilized Aβ1-42 (surface plasmon resonance) (Aβ1-42 [3]): much more strongly than other molecules that are known to bind to Aβs
- binding to Aβ40-1 (reverse peptide) (Aβ40-1 [4]): did not bind
- proportion of 125I-VEGF in the pellet after incubation with Aβ1-40 (Aβ1-40 [5]): About the same proportion
- sedimentation of VEGF in presence of Aβ40-1 (Aβ40-1 [6]): did not cause extensive sedimentation of VEGF
- influence of VEGF on the aggregation of Aβ1-40 (time course) (Aβ1-40 [7]): no significant influence
- binding of VEGF to pre-aggregated Aβ (pelleted by centrifugation) (pre-aggregated Aβ1-40): bound to pre-aggregated Aβ
- VEGF released from the Aβ/VEGF complex (Aβ/VEGF co-aggregate): less than 1.5%
- inhibition of aggregation of Aβ (thioflavin T) (Aβ1-42 [8]): inhibit aggregation of Aβ depending on the concentration
- generation of the reactive oxygen species, treatment alone (PC12 cells; 5 μM VEGF165 or 5 μM GST-HBD alone): no effect on the generation of the reactive oxygen species
- generation of the reactive oxygen species by Aβ, treatment together with Aβ (PC12 cells; 5 μM VEGF165 or 5 μM GST-HBD with 5 μM Aβ1-42): inhibitory effect on the generation of the reactive oxygen species by Aβ
- VEGF trapping into Aβ, share of VEGF added (immobilized Aβ aggregate): about 70%
- binding of growth factor to Aβ (Aβ): bound to A
- bioactivity relative to VEGF121 [9]: 100 fold
